# Test results: patent US20140242093A1, “METHODS AND COMPOSITIONS FOR MODULATING THE INNATE IMMUNE RESPONSE AND/OR MYOGENESIS IN A MAMMALIAN SUBJECT” (FRED HUTCHINSON CANCER RESEARCH CENTER, priority 2011, published 2014)
# Tested on: human genome (hg18)
# Experiment: ChIP-Seq of DUX4 binding sites in transduced primary myoblasts
# Details: for max.cov (peak height): non-repeat binding site
# Method: Non-redundant reads unambiguously mapped to the human genome were computationally extended to a total length of 200 nucleotides and “peaks” were defined as regions where the number of reads was higher than a statistical threshold compared to the background, as described below. Reads mapping to the X and Y chromosomes were excluded from the analysis.
# ChIP was performed and ChIP DNA samples were prepared as previously described in Cao et al., Dev. Cell 18:662-674 (2010), hereby incorporated herein by reference. […] Anti-DUX4 N-terminus polyclonal antibodies FH106 and FH107 were combined to immunoprecipitate DUX4-s. The samples were sequenced with Illumina Genome Analyzer II.
# Sequences were extracted by Illumina package GApipeline and reads were aligned using BWA to the human genome (hg18). The inventors only kept one of the duplicated sequences to minimize the artifacts of PCR amplification. Each read was extended in the sequencing orientation to a total of 200 bases to infer the coverage at each genomic position. Peak calling was performed by a house developed R package “peakSig” (pending submission to Bioconductor), which model background reads by a negative binomial distribution. The negative binomial distribution can be viewed as a continuous mixture of Poisson distribution where the mixing distribution of the Poisson rate is modeled as a Gamma prior. This prior distribution is used to capture the variation of background reads density across the genome. Model parameters were estimated by fitting the truncated distribution on the number of bases with low coverage (one to three), to avoid the problem of inferring effective genome size excluding the non-mappable regions, and to eliminate contamination of any foreground signals in the high coverage regions. The inventors also fit a GC dependent mixture model so that the significance of the peaks is determined not only by peak height, but also by the GC content of the neighboring genomic regions.
# Discriminative motif discovery was carried out as described in Palii et al. (2011), in which motifs were identified that distinguish a positive and a negative sequence dataset, which in this study, the positive sequences correspond to Dux4 binding sites and negative sequences correspond to the randomly sampled flanking regions of Dux4 binding sites. To generate more accurate presentation of the Dux4 binding sites from the consensus pattern returned by this analysis, the inventors tried to learn a positional weight matrix (PWM) model, using the matches of the consensus pattern as the seed to initialize the iterative expectation-maximization (EM) refinement process similar to MEME. If appropriate, the motifs are extended iteratively as long as there is sequence preference in the flanking region, and refined in the same EM process.
# The inventors associated a peak to its closest TSS within the region flanked by CTCF binding sites, which were identified in a ChIP-seq experiment on human CD4+ T cells (GEO accession number GSE12889/GSM325895).
substance,measurement,setting,value
"DUX4-fl: full-length DUX4 protein (SEQ ID NO:110), expressed from lentiviral or pCS2 vectors or in vitro translated",enrichment of binding in the MaLR family of retrotransposons,,~10 fold
same,share of sequences under the peaks with a second larger (LTR) motif,,Approximately 30%
same,number of ChIP-Seq peaks,"P-value threshold 10^−10, background peaks subtracted","62,028 peaks"
same,number of ChIP-Seq peaks,"P-value threshold 10^−15, background peaks subtracted","39,737 peaks"
same,share of peaks with motif TAAYBBAATCA near the center,de novo motif analysis,greater than 90%
same,max.cov (peak height),"AVPI1, chr10, dist2tss 126",56
same,max.cov (peak height),"BZW2, chr7, dist2tss 1939",63
same,max.cov (peak height),"BZW2, chr7, dist2tss 1955",86
same,max.cov (peak height),"C1orf63, chr1, dist2tss −1326",132
same,max.cov (peak height),"C6orf191, chr6, dist2tss 61",250
same,max.cov (peak height),"C14orf102, chr14, dist2tss −558",159
same,max.cov (peak height),"C14orf138, chr14, dist2tss 326",53
same,max.cov (peak height),"C14orf138, chr14, dist2tss −4696",50
same,max.cov (peak height),"C21orf91, chr21, dist2tss −803",274
same,max.cov (peak height),"CBARA1, chr10, dist2tss 2340",70
same,max.cov (peak height),"CBARA1, chr10, dist2tss 4786",250
same,max.cov (peak height),"CCNA1, chr13, dist2tss 1874",58
same,max.cov (peak height),"CCNA1, chr13, dist2tss −2425",56
same,max.cov (peak height),"CCNJ, chr10, dist2tss −637",265
same,max.cov (peak height),"CLDN14, chr21, dist2tss −2523",96
same,max.cov (peak height),"CLK1, chr2, dist2tss 4634",163
same,max.cov (peak height),"CSE1L, chr20, dist2tss −1935",57
same,max.cov (peak height),"CSE1L, chr20, dist2tss −5914",53
same,max.cov (peak height),"CTNNAL1, chr9, dist2tss 641",198
same,max.cov (peak height),"CTR9, chr11, dist2tss 1913",46
same,max.cov (peak height),"DBR1, chr3, dist2tss 3981",117
same,max.cov (peak height),"DDX47, chr12, dist2tss −4416",55
same,max.cov (peak height),"DEFB103A, chr8, dist2tss −2289",55
same,max.cov (peak height),"DENND2C, chr1, dist2tss −3169",116
same,max.cov (peak height),"EGLN1, chr1, dist2tss −1",205
same,max.cov (peak height),"EXOSC10, chr1, dist2tss 150",139
same,max.cov (peak height),"FAM90A1, chr12, dist2tss −1597",129
same,max.cov (peak height),"FBXO33, chr14, dist2tss −2226",117
same,max.cov (peak height),"FRG2B, chr10, dist2tss 598",200
same,max.cov (peak height),"GPBAR1, chr2, dist2tss −224",150
same,max.cov (peak height),"GTF2F1, chr19, dist2tss 134",83
same,max.cov (peak height),"HOXB2, chr17, dist2tss −2471",283
same,max.cov (peak height),"JUP, chr17, dist2tss −701",177
same,max.cov (peak height),"KDM5B, chr1, dist2tss 301",93
same,max.cov (peak height),"KIF21A, chr12, dist2tss −1030",37
same,max.cov (peak height),"KIF21A, chr12, dist2tss −4249",73
same,max.cov (peak height),"MAPKAP1, chr9, dist2tss 3619",153
same,max.cov (peak height),"MAPKAP1, chr9, dist2tss −4397",69
same,max.cov (peak height),"MAST4, chr5, dist2tss −1253",269
same,max.cov (peak height),"MED13, chr17, dist2tss −2755",43
same,max.cov (peak height),"NANS, chr9, dist2tss 1843",85
same,max.cov (peak height),"NFYA, chr6, dist2tss 49",159
same,max.cov (peak height),"PABPN1, chr14, dist2tss −529",257
same,max.cov (peak height),"PANX2, chr22, dist2tss −2040",118
same,max.cov (peak height),"PELI1, chr2, dist2tss 4936",85
same,max.cov (peak height),"PNP, chr14, dist2tss −104",344
same,max.cov (peak height),"PPP2R2B, chr5, dist2tss 2498",91
same,max.cov (peak height),"PRAMEF12, chr1, dist2tss −1230",99
same,max.cov (peak height),"PRPF18, chr10, dist2tss 3230",57
same,max.cov (peak height),"PRR4, chr12, dist2tss 83",54
same,max.cov (peak height),"PTP4A1, chr6, dist2tss −2227",105
same,max.cov (peak height),"PVRL3, chr3, dist2tss 2678",51
same,max.cov (peak height),"RBBP6, chr16, dist2tss −1619",76
same,max.cov (peak height),"RBBP6, chr16, dist2tss −1922",323
same,max.cov (peak height),"RBBP6, chr16, dist2tss −4040",46
same,max.cov (peak height),"RFPL1, chr22, dist2tss −3042",124
same,max.cov (peak height),"RFPL2, chr22, dist2tss 3057",129
same,max.cov (peak height),"RFPL2, chr22, dist2tss −2853",118
same,max.cov (peak height),"RFPL4B, chr6, dist2tss −321",232
same,max.cov (peak height),"RTN4, chr2, dist2tss 1853",115
same,max.cov (peak height),"RTN4, chr2, dist2tss −2562",52
same,max.cov (peak height),"SAMD8, chr10, dist2tss 3338",43
same,max.cov (peak height),"SEC61A2, chr10, dist2tss −1861",172
same,max.cov (peak height),"SFRS2B, chr11, dist2tss 42",373
same,max.cov (peak height),"SH3GL2, chr9, dist2tss −4600",88
same,max.cov (peak height),"SIAH1, chr16, dist2tss −2337",118
